Laboratory results published in patent publication US10072011B2, “Substituted bridged urea analogs as sirtuin modulators” (GlaxoSmithKline Intellectual Property (No.2) Limited, priority 2014, dated 2018).
Like-named read-outs stand apart in the source and are kept apart here.

Target: T1, SIRT1 (Homo sapiens, UniProt Q96EB6)
T1 sequence (Q96EB6 1-747): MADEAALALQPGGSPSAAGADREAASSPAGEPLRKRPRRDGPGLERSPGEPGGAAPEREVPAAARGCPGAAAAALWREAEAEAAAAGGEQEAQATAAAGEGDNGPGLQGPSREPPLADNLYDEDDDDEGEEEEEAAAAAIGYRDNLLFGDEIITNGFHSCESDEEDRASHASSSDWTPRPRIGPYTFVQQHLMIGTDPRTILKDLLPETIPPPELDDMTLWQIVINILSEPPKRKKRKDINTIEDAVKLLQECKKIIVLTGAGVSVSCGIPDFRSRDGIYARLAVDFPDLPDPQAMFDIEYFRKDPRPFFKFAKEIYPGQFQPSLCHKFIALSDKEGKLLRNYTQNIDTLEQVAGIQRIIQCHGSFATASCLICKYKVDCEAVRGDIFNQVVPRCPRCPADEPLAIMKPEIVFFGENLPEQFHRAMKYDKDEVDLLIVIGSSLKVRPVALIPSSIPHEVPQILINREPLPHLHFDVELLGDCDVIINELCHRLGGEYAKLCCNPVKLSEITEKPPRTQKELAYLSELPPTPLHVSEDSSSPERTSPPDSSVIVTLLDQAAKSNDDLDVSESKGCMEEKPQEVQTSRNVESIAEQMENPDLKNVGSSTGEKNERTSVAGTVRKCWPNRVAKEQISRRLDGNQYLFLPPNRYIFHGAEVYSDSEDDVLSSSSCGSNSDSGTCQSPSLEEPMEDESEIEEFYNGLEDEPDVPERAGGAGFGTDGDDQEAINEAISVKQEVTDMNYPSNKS
Test: Trp mass spectrometry assay of SIRT1 activation (Ac-R-H-K-K(Ac)-W-NH2 peptide)
Format: biochemical
Settings: for Emax: 25 min, read-out: TRP MAX RESP (percent maximum fold activation)
Outline: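 Mass spectrometry read-out (OAADPR formed, or deacetylated Trp peptide) after a 25 min NAD-dependent deacetylation by E. coli-expressed His-SIRT1, stopped with formic acid.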

[1] = Trp peptide 0.5 μM, 120 μM βNAD+, 10 nM SIRT1, 25 min at 25° C., relative to control (100%)
[2] = Trp peptide 0.5 μM, 120 μM βNAD+, 10 nM SIRT1, 25 min at 25° C.

With `CC(C)[C@@H](NC(=O)c1ccc2c(n1)N(C(=O)Nc1ccccn1)[C@H]1CCN2C1)C(F)(F)F` [Example 29, (4S)—N5-(pyridin-2-yl)-N7-((R)-1,1,1-trifluoro-3-methylbutan-2-yl)-3,4-dihydro-1,4-methanopyrido[2,3-b][1,4]diazepine-5,7(2H)-dicarboxamide] the Emax [1] was > 150% and the “TRP Activity (EC1.5, concentration of test compound that results in 150% activation of SIRT1)” value [2] was “A (EC1.5<1 μM)”.
With `CC[C@@H](CO)NC(=O)c1ccc2c(n1)N(C(=O)Nc1ccccn1)[C@H]1CCN2C1` [Example 30, (4S)—N7-((S)-1-hydroxybutan-2-yl)-N5-(pyridin-2-yl)-3,4-dihydro-1,4-methanopyrido[2,3-b][1,4]diazepine-5,7(2H)-dicarboxamide] the Emax [1] was > 150% and the “TRP Activity (EC1.5, concentration of test compound that results in 150% activation of SIRT1)” value [2] was “A (EC1.5<1 μM)”.
In the case of `CC[C@H](NC(=O)c1ccc2c(n1)N(C(=O)Nc1ccccn1)[C@H]1CCN2C1)C(F)(F)F` [Example 31, (4S)—N5-(pyridin-2-yl)-N7-((S)-1,1,1-trifluorobutan-2-yl)-3,4-dihydro-1,4-methanopyrido[2,3-b][1,4]diazepine-5,7(2H)-dicarboxamide], the Emax [1] is reported as > 150% and the “TRP Activity (EC1.5, concentration of test compound that results in 150% activation of SIRT1)” value [2] is reported as “A (EC1.5<1 μM)”.
In the case of `CC(C)NC(=O)c1ccc2c(n1)N(C(=O)Nc1ccccn1)[C@H]1CCN2C1` [Example 32, (4S)—N7-isopropyl-N5-(pyridin-2-yl)-3,4-dihydro-1,4-methanopyrido[2,3-b][1,4]diazepine-5,7(2H)-dicarboxamide], the Emax is reported as > 150% and the “TRP Activity (EC1.5, concentration of test compound that results in 150% activation of SIRT1)” value [2] is reported as “A (EC1.5<1 μM)”.
With `CC[C@@H](C)NC(=O)c1ccc2c(n1)N(C(=O)Nc1ccccn1)[C@H]1CCN2C1` [Example 33, (4S)—N7-((R)-sec-butyl)-N5-(pyridin-2-yl)-3,4-dihydro-1,4-methanopyrido[2,3-b][1,4]diazepine-5,7(2H)-dicarboxamide] the Emax [1] was > 150% and the “TRP Activity (EC1.5, concentration of test compound that results in 150% activation of SIRT1)” value [2] was “A (EC1.5<1 μM)”.
In the case of `O=C(NC[C@@H](O)C(F)(F)F)c1ccc2c(n1)N(C(=O)Nc1ccccn1)[C@H]1CCN2C1` [Example 34, (4S)—N5-(pyridin-2-yl)-N7-((R)-3,3,3-trifluoro-2-hydroxypropyl)-3,4-dihydro-1,4-methanopyrido[2,3-b][1,4]diazepine-5,7(2H)-dicarboxamide], the Emax [1] is reported as > 150% and the “TRP Activity (EC1.5, concentration of test compound that results in 150% activation of SIRT1)” value [2] is reported as “A (EC1.5<1 μM)”.
For `O=C(NC1CCCC1)c1ccc2c(n1)N(C(=O)Nc1ccccn1)[C@H]1CCN2C1` [Example 35, (4S)—N7-cyclopentyl-N5-(pyridin-2-yl)-3,4-dihydro-1,4-methanopyrido[2,3-b][1,4]diazepine-5,7(2H)-dicarboxamide], the Emax [1] was > 150% and the “TRP Activity (EC1.5, concentration of test compound that results in 150% activation of SIRT1)” value [2] was “A (EC1.5<1 μM)”.
`O=C(NCC1(O)CC1)c1ccc2c(n1)N(C(=O)Nc1ccccn1)[C@H]1CCN2C1` [Example 36, (4S)—N7-((1-hydroxycyclopropyl)methyl)-N5-(pyridin-2-yl)-3,4-dihydro-1,4-methanopyrido[2,3-b][1,4]diazepine-5,7(2H)-dicarboxamide] was tested, and the Emax [1] was > 150% and the “TRP Activity (EC1.5, concentration of test compound that results in 150% activation of SIRT1)” value [2] was “B (EC1.5 1-25 μM)”.
`CC(C)CNC(=O)c1ccc2c(n1)N(C(=O)Nc1ccccn1)[C@H]1CCN2C1` [Example 37, (4S)—N7-isobutyl-N5-(pyridin-2-yl)-3,4-dihydro-1,4-methanopyrido[2,3-b][1,4]diazepine-5,7(2H)-dicarboxamide] was tested, and the Emax [1] was > 150% and the “TRP Activity (EC1.5, concentration of test compound that results in 150% activation of SIRT1)” value [2] was “A (EC1.5<1 μM)”.
With `O=C(NCC1CC1)c1ccc2c(n1)N(C(=O)Nc1ccc(F)cn1)[C@H]1CCN2C1` [Example 38, (4S)—N7-(cyclopropylmethyl)-N5-(5-fluoropyridin-2-yl)-3,4-dihydro-1,4-methanopyrido[2,3-b][1,4]diazepine-5,7(2H)-dicarboxamide] the Emax [1] was > 150% and the “TRP Activity (EC1.5, concentration of test compound that results in 150% activation of SIRT1)” value [2] was “A (EC1.5<1 μM)”.
